{"source": "paper PMC10843894", "about": "(Cell and tissue research, 2011)", "key": {"intracellular Ca^2+": {"system": "intracellular Ca^2+", "assay": "Secretin-induced catecholamine secretion with intracellular Ca2+ chelator", "type": "cell-based, rat", "settings": "BAPTA-AM 50 μM pre-treatment 30 min; secretin 8 μM, 20 min, Ca2+-free buffer + 0.5 mM EGTA"}, "PLC-β": {"system": "PLC-β", "assay": "Inhibition of secretin-evoked catecholamine secretion by PLC-β blockade", "type": "cell-based, rat", "settings": "secretin 8 μM, 20 min"}, "phospholipase C": {"system": "phospholipase C", "settings": "U-73122 20 μM, secretin 8 μM, 0.5 min"}, "[1]": {"system": "plasma membrane Ca^2+ channels", "type": "cell-based, rat", "settings": "ZnCl2 100 μM; data not shown"}, "[2]": {"system": "plasma membrane Ca^2+ channels", "type": "cell-based, rat"}, "catecholamine secretion": {"system": "catecholamine secretion", "settings": "cited from earlier work"}, "cAMP in PC12 cells": {"system": "cAMP in PC12 cells", "settings": "cited from earlier work"}, "Th gene": {"system": "Th gene", "settings": "cited from earlier work; for transcription of Th (PACAP and VIP, literature): porcine/bovine chromaffin cells, PC12 cells, CATH.a cells, ref Isobe et al. 1996, Park et al. 1999, Tonshoff et al. 1997, Corbitt et al. 1998, 2002, Yukimasa et al. 1999, Muller et al. 1997"}, "VPAC1": {"biological_target": "T1, VPAC1 (Rattus norvegicus, UniProt P30083)", "T1 sequence (P30083 31-459)": "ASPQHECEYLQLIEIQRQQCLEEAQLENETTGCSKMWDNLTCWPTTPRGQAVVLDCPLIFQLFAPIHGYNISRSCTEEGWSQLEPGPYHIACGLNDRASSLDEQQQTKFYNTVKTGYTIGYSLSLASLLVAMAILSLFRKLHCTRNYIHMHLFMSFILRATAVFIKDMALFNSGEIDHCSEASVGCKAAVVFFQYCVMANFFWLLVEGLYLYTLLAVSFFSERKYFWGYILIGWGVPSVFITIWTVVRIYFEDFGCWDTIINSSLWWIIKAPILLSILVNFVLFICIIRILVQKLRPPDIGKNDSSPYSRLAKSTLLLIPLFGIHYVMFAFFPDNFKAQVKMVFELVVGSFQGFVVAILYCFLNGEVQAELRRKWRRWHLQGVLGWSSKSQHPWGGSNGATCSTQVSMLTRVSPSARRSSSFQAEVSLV", "assay": "Blockade of secretin-induced Th transcription by VPAC1 antagonist", "settings": "pre-treatment before secretin 0.1 μM (Fig. 1d)"}, "PAC1 receptor": {"system": "PAC1 receptor", "assay": "PAC1 receptor agonism inferred from secretion concentrations", "type": "cell-based", "settings": "inferred from secretion findings"}, "SCTR": {"system": "SCTR", "assay": "Inhibition of secretin-induced catecholamine secretion by SCTR antagonist", "type": "cell-based, rat", "settings": "antagonist up to 20 μM, secretin 6 μM, 30 min"}}, "note": "Ends that are not written are not given here."}
{"compound": "CC(=O)OCOC(=O)CN(CC(=O)OCOC(C)=O)c1ccccc1OCCOc1ccccc1N(CC(=O)OCOC(C)=O)CC(=O)OCOC(C)=O", "note": "[BAPTA-AM]", "values": [{"measurement": "effect of BAPTA-AM on secretin-induced catecholamine secretion", "setting": "intracellular Ca^2+", "value": "completely abolished"}]}
{"compound": "COc1ccc2c(c1)CC[C@@H]1[C@@H]2CC[C@]2(C)[C@@H](NCCCCCCN3C(=O)C=CC3=O)CC[C@@H]12", "note": "[U73122]", "values": [{"measurement": "inhibition of secretin-evoked catecholamine secretion by PLC-β inhibitor", "setting": "PLC-β; U-73122 10 μM", "value": "~ 54%"}, {"measurement": "inhibition of IP3 levels by PLC blockade", "setting": "phospholipase C", "value": "~ 61%"}]}
{"compound": "COc1ccc2c(c1)CC[C@@H]1[C@@H]2CC[C@]2(C)[C@@H](NCCCCCCN3C(=O)CCC3=O)CC[C@@H]12", "note": "[U-73343]", "values": [{"measurement": "effect of inactive isomer on secretin-induced secretion", "setting": "PLC-β; U-73343 10 μM", "value": "did not affect secretin-induced secretion"}]}
{"compound": "[Cl-].[Cl-].[Zn+2]", "note": "[ZnCl2]", "values": [{"measurement": "block of PACAP-induced catecholamine secretion", "setting": "[1]", "value": "completely blocked"}, {"measurement": "effect of non-specific Ca2+ channel blockade on secretin-induced secretion", "setting": "[2]; ZnCl2 100 μM, secretin 8 μM, 20 min", "value": "ineffective"}]}
{"compound": "CN1CCC[C@H]1c1cccnc1", "note": "[nicotine]", "values": [{"measurement": "prolonged catecholamine secretion, nicotine (literature)", "setting": "catecholamine secretion; ref Hamelink et al. 2002", "value": "does not cause prolonged catecholamine secretion"}]}
{"compound": "Pituitary adenylyl cyclase activating polypeptide [PACAP]", "values": [{"measurement": "intracellular cAMP levels in chromaffin cells (literature), PACAP", "setting": "cAMP in PC12 cells; ref Hamelink et al. 2002", "value": "elevated"}, {"measurement": "transcription of Th (PACAP and VIP, literature)", "setting": "Th gene", "value": "augment the transcription of Th"}, {"measurement": "concentration achieving significant catecholamine secretion (PACAP)", "setting": "catecholamine secretion; ref Chowdhury et al. 1994, Przywara et al. 1996", "value": 10, "unit": "nM"}, {"measurement": "prolonged catecholamine secretion, PACAP (literature)", "setting": "catecholamine secretion; ref Taupenot et al. 1999", "value": "long-lasting"}]}
{"compound": "VIP6–28: VPAC1 (VIP6–28) antagonist (FTDNYTRLRKQMAVKKYLNSILN; ends and bridges not checked; UniProt P01282 130-152, looked up, fragment)", "values": [{"measurement": "effect of VPAC1 antagonist on Th gene expression induced by secretin or PHI", "setting": "Th gene; ref Wessels-Reiker et al. 1993", "value": "no significant effect"}, {"measurement": "effect of VPAC1 antagonist on VIP-increased Th mRNA", "setting": "Th gene; ref Wessels-Reiker et al. 1993", "value": "lowers the effect of VIP on increasing Th mRNA"}, {"measurement": "effect on secretin-induced transcription of Th gene, VPAC1 antagonist", "setting": "VPAC1", "value": "Failure"}]}
{"compound": "Vasoactive intestinal polypeptide [VIP]", "values": [{"measurement": "agonism at PAC1 receptor", "setting": "PAC1 receptor", "value": "poor agonists for the PAC1 receptor"}, {"measurement": "intracellular cAMP levels in chromaffin cells (literature), VIP", "setting": "cAMP in PC12 cells; ref Anderova et al. 1998", "value": "elevated"}, {"measurement": "transcription of Th (PACAP and VIP, literature)", "setting": "Th gene", "value": "augment the transcription of Th"}, {"measurement": "concentration achieving significant catecholamine secretion (VIP)", "setting": "catecholamine secretion; ref Guo and Wakade 1994, Wakade et al. 1991", "value": 300, "unit": "nM"}, {"measurement": "source of Ca2+ for VIP-induced catecholamine secretion", "setting": "catecholamine secretion; ref Malhotra et al. 1988", "value": "depends solely upon Ca^2+ mobilization from intracellular stores"}]}
{"compound": "secretin5–27: SCTR antagonist (secretin5–27) (TFTSELSRLREGARLQRLLQGLV; ends and bridges not checked; UniProt P09683 32-54, looked up, fragment)", "values": [{"measurement": "effect of SCTR antagonist on secretin-induced secretion", "setting": "SCTR", "value": "failed to inhibit secretion"}, {"measurement": "effect of SCTR antagonist on VIP- or PHI-induced Th gene expression", "setting": "Th gene; ref Wessels-Reiker et al. 1993", "value": "no significant effect"}, {"measurement": "effect of SCTR antagonist on secretin-induced Th gene expression (literature)", "setting": "Th gene; ref Wessels-Reiker et al. 1993", "value": "reduces the effect of secretin"}]}
{"compound": "ω-agatoxin", "values": [{"measurement": "effect of Ca2+ channel inhibitors on secretin-induced catecholamine secretion", "setting": "[2]", "value": "little to no effect"}]}
{"compound": "ω-conotoxin GVIA", "values": [{"measurement": "effect of Ca2+ channel inhibitors on secretin-induced catecholamine secretion", "setting": "[2]", "value": "little to no effect"}]}
{"compound": "ω-conotoxin MVIIC", "values": [{"measurement": "effect of Ca2+ channel inhibitors on secretin-induced catecholamine secretion", "setting": "[2]", "value": "little to no effect"}]}
